This passage reports Kd results from ChEMBL document CHEMBL3991601, “The target landscape of clinical kinase drugs” (Science, 2017).

pKd: −log10 of the molar value. The source made the active and inactive calls. Bounds are passed on as bounds.

The target of assay [1] is T1, Acyl-CoA dehydrogenase family member 10 (Homo sapiens, UniProt Q6JQN1).
T1 sequence (Q6JQN1 whole entry): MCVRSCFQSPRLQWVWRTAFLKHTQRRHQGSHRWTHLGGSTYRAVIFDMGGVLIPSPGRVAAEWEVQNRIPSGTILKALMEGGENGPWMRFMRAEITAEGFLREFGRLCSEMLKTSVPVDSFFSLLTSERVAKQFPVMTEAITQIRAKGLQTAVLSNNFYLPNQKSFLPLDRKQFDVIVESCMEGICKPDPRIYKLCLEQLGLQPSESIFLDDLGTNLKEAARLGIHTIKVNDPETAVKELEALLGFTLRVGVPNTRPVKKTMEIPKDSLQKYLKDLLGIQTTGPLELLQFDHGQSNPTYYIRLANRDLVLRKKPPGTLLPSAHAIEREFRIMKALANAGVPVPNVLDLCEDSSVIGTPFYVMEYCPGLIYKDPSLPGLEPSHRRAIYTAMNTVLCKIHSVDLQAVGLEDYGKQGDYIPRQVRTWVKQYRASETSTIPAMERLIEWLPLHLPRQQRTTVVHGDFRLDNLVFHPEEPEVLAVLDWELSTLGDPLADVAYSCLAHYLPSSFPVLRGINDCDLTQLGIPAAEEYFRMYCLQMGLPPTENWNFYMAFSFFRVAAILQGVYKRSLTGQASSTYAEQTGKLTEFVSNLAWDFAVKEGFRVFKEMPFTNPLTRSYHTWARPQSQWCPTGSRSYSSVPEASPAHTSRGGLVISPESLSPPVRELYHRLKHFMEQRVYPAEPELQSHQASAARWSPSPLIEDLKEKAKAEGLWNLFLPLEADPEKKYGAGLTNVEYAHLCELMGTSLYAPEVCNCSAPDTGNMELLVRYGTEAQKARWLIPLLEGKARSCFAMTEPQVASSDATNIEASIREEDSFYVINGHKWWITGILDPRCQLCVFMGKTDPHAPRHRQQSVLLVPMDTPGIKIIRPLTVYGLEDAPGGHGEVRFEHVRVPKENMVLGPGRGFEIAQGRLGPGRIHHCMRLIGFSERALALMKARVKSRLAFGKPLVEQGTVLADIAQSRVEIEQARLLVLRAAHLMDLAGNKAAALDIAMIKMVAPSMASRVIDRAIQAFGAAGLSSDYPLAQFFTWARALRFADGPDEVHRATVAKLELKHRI

The next assay deals with T2, Ephrin type-B receptor 4 (Homo sapiens, UniProt P54760).
T2 sequence (P54760 whole entry): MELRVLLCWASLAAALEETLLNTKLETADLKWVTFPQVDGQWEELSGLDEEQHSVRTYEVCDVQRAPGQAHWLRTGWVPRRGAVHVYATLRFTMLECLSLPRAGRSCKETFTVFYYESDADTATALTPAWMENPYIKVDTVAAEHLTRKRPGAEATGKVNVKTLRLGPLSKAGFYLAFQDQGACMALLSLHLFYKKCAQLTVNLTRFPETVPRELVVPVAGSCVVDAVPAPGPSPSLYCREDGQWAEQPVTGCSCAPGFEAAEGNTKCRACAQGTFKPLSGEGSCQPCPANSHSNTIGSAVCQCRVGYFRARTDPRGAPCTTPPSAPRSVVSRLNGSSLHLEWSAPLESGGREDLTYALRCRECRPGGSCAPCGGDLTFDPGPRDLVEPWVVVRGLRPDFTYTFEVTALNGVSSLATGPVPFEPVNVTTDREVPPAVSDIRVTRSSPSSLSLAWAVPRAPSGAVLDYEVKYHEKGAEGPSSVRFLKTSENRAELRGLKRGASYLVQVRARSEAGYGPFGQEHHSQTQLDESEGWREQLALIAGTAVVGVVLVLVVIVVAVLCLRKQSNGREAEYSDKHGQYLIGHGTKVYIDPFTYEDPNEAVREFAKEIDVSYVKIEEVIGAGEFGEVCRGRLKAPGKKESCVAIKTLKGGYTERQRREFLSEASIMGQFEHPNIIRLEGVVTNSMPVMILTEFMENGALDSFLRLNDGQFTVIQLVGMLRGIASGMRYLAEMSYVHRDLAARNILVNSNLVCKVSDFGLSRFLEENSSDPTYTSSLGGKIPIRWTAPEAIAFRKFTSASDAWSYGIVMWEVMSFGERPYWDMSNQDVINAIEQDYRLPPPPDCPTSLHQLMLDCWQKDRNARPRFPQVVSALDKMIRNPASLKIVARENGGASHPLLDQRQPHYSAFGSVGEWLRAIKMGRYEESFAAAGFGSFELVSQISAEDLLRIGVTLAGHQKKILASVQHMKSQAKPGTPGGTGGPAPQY

Assay [2] concerns the target cAMP-dependent protein kinase catalytic subunit gamma (Homo sapiens, UniProt P22612).
In assay [3] the target is Protein kinase C beta type (Homo sapiens, UniProt P05771).
For assay [4], the target named is Protein kinase C delta type (Homo sapiens, UniProt Q05655).
Another assay deals with DNA topoisomerase 2-beta (Homo sapiens, UniProt Q02880).
Further: in the data inactive means no Kd found up to 30 µM.

Sequence of Protein kinase C beta type (P05771 whole entry): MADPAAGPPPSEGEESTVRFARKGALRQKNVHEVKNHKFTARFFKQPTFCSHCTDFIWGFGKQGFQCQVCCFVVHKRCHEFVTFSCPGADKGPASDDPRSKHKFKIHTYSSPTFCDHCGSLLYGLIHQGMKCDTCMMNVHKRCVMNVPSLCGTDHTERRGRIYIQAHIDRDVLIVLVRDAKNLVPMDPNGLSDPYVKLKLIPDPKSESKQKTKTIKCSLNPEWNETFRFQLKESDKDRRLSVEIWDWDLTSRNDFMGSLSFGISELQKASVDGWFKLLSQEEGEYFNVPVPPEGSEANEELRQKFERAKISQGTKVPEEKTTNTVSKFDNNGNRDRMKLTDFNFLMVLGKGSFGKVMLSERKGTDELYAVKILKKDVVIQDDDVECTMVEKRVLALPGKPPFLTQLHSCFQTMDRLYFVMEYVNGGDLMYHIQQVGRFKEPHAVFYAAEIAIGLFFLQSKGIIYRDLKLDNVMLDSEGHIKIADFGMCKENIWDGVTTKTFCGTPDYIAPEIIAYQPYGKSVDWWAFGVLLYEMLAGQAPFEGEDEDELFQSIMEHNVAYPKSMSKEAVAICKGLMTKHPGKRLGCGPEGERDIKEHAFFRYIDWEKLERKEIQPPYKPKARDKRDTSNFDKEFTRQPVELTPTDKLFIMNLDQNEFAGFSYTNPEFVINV
Sequence of DNA topoisomerase 2-beta (Q02880 whole entry): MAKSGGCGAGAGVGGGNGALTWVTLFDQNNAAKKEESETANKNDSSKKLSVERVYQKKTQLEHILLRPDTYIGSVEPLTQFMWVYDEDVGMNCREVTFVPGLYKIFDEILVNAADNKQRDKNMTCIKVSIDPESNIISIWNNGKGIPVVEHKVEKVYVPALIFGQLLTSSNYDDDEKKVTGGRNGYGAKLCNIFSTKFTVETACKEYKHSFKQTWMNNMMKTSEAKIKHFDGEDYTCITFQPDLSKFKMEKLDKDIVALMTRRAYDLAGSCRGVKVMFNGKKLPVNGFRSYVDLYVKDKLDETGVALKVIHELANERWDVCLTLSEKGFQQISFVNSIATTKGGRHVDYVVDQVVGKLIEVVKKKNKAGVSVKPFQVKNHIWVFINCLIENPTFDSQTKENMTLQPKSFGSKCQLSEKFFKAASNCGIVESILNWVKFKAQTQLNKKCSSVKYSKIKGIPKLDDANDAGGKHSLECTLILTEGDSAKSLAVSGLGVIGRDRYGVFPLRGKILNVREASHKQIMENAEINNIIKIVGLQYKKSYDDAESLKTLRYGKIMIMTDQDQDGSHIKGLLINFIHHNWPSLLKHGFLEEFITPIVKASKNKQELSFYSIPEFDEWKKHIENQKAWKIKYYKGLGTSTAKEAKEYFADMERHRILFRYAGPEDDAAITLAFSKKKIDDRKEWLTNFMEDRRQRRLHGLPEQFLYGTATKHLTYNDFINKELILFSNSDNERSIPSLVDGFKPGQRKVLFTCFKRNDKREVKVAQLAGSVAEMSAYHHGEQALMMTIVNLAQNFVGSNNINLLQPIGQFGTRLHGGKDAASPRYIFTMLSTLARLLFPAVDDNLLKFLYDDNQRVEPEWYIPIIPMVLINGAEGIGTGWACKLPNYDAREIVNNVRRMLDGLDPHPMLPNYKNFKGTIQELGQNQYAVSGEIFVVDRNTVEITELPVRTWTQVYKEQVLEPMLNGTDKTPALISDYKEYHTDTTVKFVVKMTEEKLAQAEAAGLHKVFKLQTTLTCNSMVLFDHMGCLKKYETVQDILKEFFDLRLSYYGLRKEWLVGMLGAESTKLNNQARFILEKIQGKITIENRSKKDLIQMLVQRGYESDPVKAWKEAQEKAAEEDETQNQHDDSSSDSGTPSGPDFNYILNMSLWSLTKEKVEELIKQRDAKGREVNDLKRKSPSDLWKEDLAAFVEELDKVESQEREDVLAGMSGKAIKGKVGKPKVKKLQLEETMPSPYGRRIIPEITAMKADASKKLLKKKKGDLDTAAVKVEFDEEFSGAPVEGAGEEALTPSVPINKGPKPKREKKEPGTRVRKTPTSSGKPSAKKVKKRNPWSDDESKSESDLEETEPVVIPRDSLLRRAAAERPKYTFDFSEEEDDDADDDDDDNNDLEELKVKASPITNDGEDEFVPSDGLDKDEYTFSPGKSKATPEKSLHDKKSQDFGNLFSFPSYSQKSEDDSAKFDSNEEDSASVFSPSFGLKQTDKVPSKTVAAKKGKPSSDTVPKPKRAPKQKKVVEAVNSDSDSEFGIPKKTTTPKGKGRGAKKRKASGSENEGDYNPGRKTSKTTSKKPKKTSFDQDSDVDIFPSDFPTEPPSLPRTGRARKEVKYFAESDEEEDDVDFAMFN
Sequence of Protein kinase C delta type (Q05655 whole entry): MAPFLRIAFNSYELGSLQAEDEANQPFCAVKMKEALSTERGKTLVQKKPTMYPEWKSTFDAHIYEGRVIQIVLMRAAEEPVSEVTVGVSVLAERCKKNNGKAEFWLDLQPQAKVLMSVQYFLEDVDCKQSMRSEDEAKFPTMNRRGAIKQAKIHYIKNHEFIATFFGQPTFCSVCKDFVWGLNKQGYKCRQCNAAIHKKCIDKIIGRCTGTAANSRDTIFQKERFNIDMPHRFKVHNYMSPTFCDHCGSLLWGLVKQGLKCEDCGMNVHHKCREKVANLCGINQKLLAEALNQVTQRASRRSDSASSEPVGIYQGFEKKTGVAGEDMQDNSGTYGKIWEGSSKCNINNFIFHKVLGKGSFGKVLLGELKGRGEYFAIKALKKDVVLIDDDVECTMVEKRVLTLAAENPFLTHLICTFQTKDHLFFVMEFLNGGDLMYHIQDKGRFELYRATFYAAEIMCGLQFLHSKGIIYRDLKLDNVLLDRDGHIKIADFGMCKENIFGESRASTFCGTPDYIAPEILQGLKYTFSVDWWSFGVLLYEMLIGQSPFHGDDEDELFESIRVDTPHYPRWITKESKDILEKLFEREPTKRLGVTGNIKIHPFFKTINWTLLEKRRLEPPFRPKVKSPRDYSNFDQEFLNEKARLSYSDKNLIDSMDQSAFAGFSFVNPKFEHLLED
Sequence of cAMP-dependent protein kinase catalytic subunit gamma (P22612 whole entry): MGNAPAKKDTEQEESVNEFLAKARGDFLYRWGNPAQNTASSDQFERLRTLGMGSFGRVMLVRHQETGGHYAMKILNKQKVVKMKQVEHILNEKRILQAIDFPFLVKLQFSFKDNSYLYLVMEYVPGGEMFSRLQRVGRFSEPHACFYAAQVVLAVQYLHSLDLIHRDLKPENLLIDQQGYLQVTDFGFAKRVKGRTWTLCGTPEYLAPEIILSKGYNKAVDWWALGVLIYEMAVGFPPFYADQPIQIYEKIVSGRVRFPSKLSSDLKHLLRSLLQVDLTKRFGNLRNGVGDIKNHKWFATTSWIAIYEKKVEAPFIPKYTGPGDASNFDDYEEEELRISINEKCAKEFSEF

Turning to `COc1ccc2c(OCc3nnc4ccc(-c5ccccc5)nn34)ccnc2c1` [AMG-208], the Kd (in assay [1]; at Ephrin type-B receptor 4; in assay [3]; in assay [4]; on DNA topoisomerase 2-beta) was > 30 µM (inactive) each time. For the same molecule, in assay [2], the negative logarithm of the Kd (pKd) is 8.70.
In the case of `COc1ccc(-c2ccc3ncc4c(c3c2)n(-c2ccc(N3CCNCC3)c(C(F)(F)F)c2)c(=O)n4C)cn1` [BGT-226 FREE BASE], the Kd in assay [1] was > 30 µM (inactive); at Ephrin type-B receptor 4, > 30 µM (inactive); in assay [2], > 30000 nM (inactive); in assay [3] it was > 30 µM (inactive); in assay [4], > 30 µM (inactive); on DNA topoisomerase 2-beta it was > 30 µM (inactive).
